Test results reported in patent US6211225A, “Heterocyclic aminopyrrolidine derivatives as melatonergic agents” (Bristol-Meyers Squibb, priority 2000, dated 2001).

Target: T1, human melatonin ML1a receptor (Homo sapiens, UniProt P48039)
T1 construct: expressed in transfected cells; membrane homogenates
T1 sequence (P48039 whole entry): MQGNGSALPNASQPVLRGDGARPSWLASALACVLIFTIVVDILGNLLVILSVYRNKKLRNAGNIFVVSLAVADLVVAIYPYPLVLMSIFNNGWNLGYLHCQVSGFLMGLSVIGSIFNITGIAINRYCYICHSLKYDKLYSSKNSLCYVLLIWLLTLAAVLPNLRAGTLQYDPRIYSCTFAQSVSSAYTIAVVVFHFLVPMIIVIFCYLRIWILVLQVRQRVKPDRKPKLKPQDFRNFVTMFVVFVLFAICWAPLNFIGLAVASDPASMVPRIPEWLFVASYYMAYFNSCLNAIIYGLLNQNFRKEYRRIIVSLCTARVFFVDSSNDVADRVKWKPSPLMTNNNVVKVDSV
Experiment: Melatonergic receptor binding activity (2-[125I]-iodomelatonin binding, membranes of NIH-3T3 cells expressing ML1a)
Settings: 37° C. for 1 hour, read-out: Melatonin Binding Affinity (IC50)
Procedure: Melatonergic Receptor Binding Activity
(a) TME=50 mM Tris buffer containing 12.5 mM MgCl2, and 2 mM EDTA, pH 7.4 at 37° C. with concentrated HCl.
(b) Wash buffer: 20 mM Tris base containing 2 mM MgCl2, pH 7.4 at room temperature.
(c) 10^-4 M melatonin (10^-5 M final concentration).
(d) 2-[^125 I]-iodomelatonin, 0.1 M final concentration
The melatonin ML1a receptor cDNA was subcloned into pcDNA3 and introduced into NIH-3T3 cells using Lipofectamine. Transformed NIH-3T3 cells resistant to geneticin (G-418) were isolated, and single colonies expressing high levels of 2[^125 I]-iodomelatonin binding were isolated. Cells are maintained in DMEM supplemented with 10% calf serum and G-418 (0.5 g/liter). Cells are grown to confluency in T-175 flasks, scraped using Hank's balanced salt solution, and frozen at -80° C. For preparing membrane homogenates, pellets are thawed on ice, and resuspended in TME buffer in the presence of 10 μg/ml aprotinin and leupeptin, and 100 ,μM phenylmethylsulfonylfluoride. The cells were then homogenized using a dounce homogenizer, and centrifuged. The resulting pellet was resuspended with dounce homogenizer in TME (supplemented with the above protease inhibitors) and frozen. On the day of assay, the small aliquot was thawed on ice and resuspended in ice cold TME (1:50-1:100 v/v) and held on ice until assayed.
37° C. for 1 hour. Reaction is terminated by filtration. Filters are washed 3 times.
^a = IC50 values for ML1a human melatonin receptor binding
Molecule CCC(=O)N[C@@H]1CCN(c2cccc3c2CCO3)C1 [Example 4, (R)-N-[N-(2,3-dihydrobenzofuran-4-yl)-pyrrolidin-3-yl]propanamide] has an IC50 of 0.01 to 0.2 µM.
In the case of CCC(=O)N[C@H]1CCN(c2cccc3c2CCCO3)C1 [Example 13, (S)-N-[N-(2H-2,3-dihydrobenzopyran-5-yl)-pyrrolidin-3-yl]propanamide], the IC50 is reported as < 0.01 µM.
For O=C(N[C@@H]1CCN(c2cccc3c2CCO3)C1)C1CC1 [Example 10, (R)-N-[N-(2,3-dihydrobenzofuran-4-yl)-pyrrolidin-3-yl]cyclopropane carboxamide], the IC50 was < 0.01 µM.
For CC(=O)N[C@H]1CCN(c2c(Cl)cc(Cl)c3c2CCO3)C1 [Example 35, (S)-N-[N-(5,7-Dichloro-2,3-Dihydrobenzofuran-4-yl)-Pyrrolidin-3-yl]Acetamide], the IC50 was < 0.01 µM.
CN(C)C(=O)N[C@H]1CCN(c2cccc3c2CCO3)C1 [Example 32, (S)-N-[N-(2,3-dihydrobenzofuran-4-yl)-pyrrolidin-3-yl]-N',N'-dimethyl urea] showed an IC50 of 0.01 to 0.2 µM.
For CCCC(=O)N[C@H]1CCN(c2c(Cl)ccc3c2CCO3)C1 [Example 36, (S)-N-[N-(5-chloro-2,3-dihydrobenzofuran-4-yl)-pyrrolidin-3-yl]butyramide], the IC50 was < 0.01 µM.
With CCNC(=O)N[C@H]1CCN(c2cccc3c2CCO3)C1 [Example 20, (S)-N-[N-(2,3-dihydrobenzofuran-4-yl)-pyrrolidin-3-yl]-N'-ethyl urea] the IC50 was < 0.01 µM.
With COCC(=O)N[C@H]1CCN(c2cccc3c2CCO3)C1 [Example 11, (S)-N-[N-(2,3-dihydrobenzofuran-4-yl)-pyrrolidin-3-yl]methoxyacetamide] the IC50 was < 0.01 µM.
CC(=O)N[C@H]1CCN(c2cccc3c2OCCO3)C1 [Example 14, (S)-N-[N-(2,3-dihydro-1,4-benzodioxin-5-yl)-pyrrolidin-3-yl]acetamide] showed an IC50 of 0.01 to 0.2 µM.
In the case of O=C(NC1CC1)N[C@@H]1CCN(c2cccc3c2CCO3)C1 [Example 30, (R)-N-[N-(2,3-Dihydrobenzofuran-4-yl)-Pyrrolidin-3-yl]-N'-Cylopropyl Urea], the IC50 is reported as 0.01 to 0.2 µM.
In the case of CCNC(=O)N[C@@H]1CCN(c2cccc3c2CCO3)C1 [Example 21, (R)-N-[N-(2,3-dihydrobenzofuran-4-yl)-pyrrolidin-3-yl]-N'-ethyl urea], the IC50 is reported as < 0.01 µM.
In the case of CCNC(=O)N[C@H]1CCN(c2cccc3c2OCCO3)C1 [Example 28, (S)-N-[N-(2,3-dihydro-1,4-benzodioxin-5-yl)-pyrrolidin-3-yl]-N'-ethyl urea], the IC50 is reported as 0.01 to 0.2 µM.

Tested on: circadian rhythms in rats
Experiment: not given
Settings: cited from earlier work
In the case of COc1ccc2[nH]cc(CCNC(C)=O)c2c1 [melatonin, N-acetyl-5-methoxytryptamine], the “effect of exogenous melatonin administration on circadian rhythms” value is given as “synchronize circadian rhythms in rats”.
